The text below walks through data of patent US20210121383A1, “COMPOSITION FOR ANTI-AGING” (MORINAGA MILK INDUSTRY CO., LTD., priority 2018, published 2021).

This test has as its system HepG2 cells derived from liver cancer. Description: Test 2: quantitative evaluation of autophagy activity (CYTO-ID/Hoechst 33342 fluorescence, microplate reader). In kind it is cell-based. To be noted: 100 μM compound 1 or compound 2, 24 hours (positive control 500 nM rapamycin, 16 hours), then 10 μM chloroquine 6 hours; 3 wells per group. As for the experimental part: The active action of autophagy of the compound 1 or the compound 2 observed in Test 1 was quantitatively detected.
HepG2 cells derived from liver cancer in 2.5×10^4 cells were plated in a 96-well plate (manufactured by Falcon), and the culture was performed for 24 hours in DMEM containing 10% FBS under the conditions of 37° C. and a CO2 concentration of 5%. After that, the cells were cultured for 24 hours by using a medium for testing prepared in (1-1) of (1) in Test 1. Further, the culture was performed in a similar manner as in Test 1 also in the negative control and the positive control. […]
Into each well, 100 μL of an assay buffer attached to a kit (manufactured by Enzo Life Sciences, Inc.) was added, and the fluorescence intensity was measured by using a fluorescence microplate reader, SH-9000 (manufactured by CORONA ELECTRIC Co., Ltd.). The fluorescence derived from the fluorescent probe for autophagy detection was measured under the conditions of an excitation filter of 480 nm and a fluorescence filter of 530 nm. Further, the fluorescence derived from each staining reagent was measured under the conditions of an excitation filter of 340 nm and a fluorescence filter of 480 nm.
Results of the fluorescence intensity of the cells exposed to a compound 1 or a compound 2, which was measured by a fluorescence microplate reader, are shown in Table 1. […]

Regarding `CO[C@H]1C[C@@H]2CC[C@@H](C)[C@@](O)(O2)C(=O)C(=O)N2CCCC[C@H]2C(=O)O[C@H]([C@H](C)C[C@@H]2CC[C@@H](O)[C@H](OC)C2)CC(=O)[C@H](C)/C=C(\C)[C@@H](O)[C@@H](OC)C(=O)[C@H](C)C[C@H](C)/C=C/C=C/C=C/1C` [Positive control, rapamycin], the “Autophagy induction (CYTO-ID fluorescence intensity/Hoechst 33342 fluorescence intensity)” value came to 93.
